Patent US20150105252A1, “SUBSTITUTED PYRAZOLES AS HERBICIDES” (E I DU PONT DE NEMOURS AND COMPANY, priority 2013, published 2015)

How the values were obtained:
chickweed = test: Test D postemergence; assay type: in vivo, Stellaria media; settings: scale 0 to 100
Procedure, shortened: (§1)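 Visual injury scored 0–100 (0 none, 100 complete control) against controls 14–21 days after treatment in a controlled growth environment. Chemicals were formulated in a non-phytotoxic solvent mixture containing surfactant, applied to silt loam soil preemergence or to 1- to 4-leaf plants postemergence.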

giant foxtail = test: Test F preemergence; assay type: in vivo, Setaria faberii
Procedure, shortened: (§2)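 Formulated in surfactant-containing non-phytotoxic solvent; pre: applied to seeded silt loam; post: applied to plants 2–18 cm (1–4 leaves); greenhouse 14–21 d; visual 0–100 rating vs controls.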

galium = test: Test D preemergence; assay type: in vivo, Galium aparine; settings: scale 0 to 100
Procedure, shortened: as §1

oat, wild = test: Test D postemergence; assay type: in vivo, Avena fatua; settings: scale 0 to 100
Procedure, shortened: as §1

canarygrass = test: Test D preemergence; assay type: in vivo, Phalaris minor; settings: scale 0 to 100
Procedure, shortened: as §1

wild poinsettia = test: Test F preemergence; assay type: in vivo, Euphorbia heterophylla
Procedure, shortened: as §2

large crabgrass = test: Test F preemergence; assay type: in vivo, Digitaria sanguinalis
Procedure, shortened: as §2

bromegrass, downy = test: Test D preemergence; assay type: in vivo, Bromus tectorum; settings: scale 0 to 100
Procedure, shortened: as §1

pigweed = test: Test D preemergence; assay type: in vivo, Amaranthus retroflexus; settings: scale 0 to 100
Procedure, shortened: as §1

lambsquarters [1] = test: Test F preemergence; assay type: in vivo, Chenopodium album
Procedure, shortened: as §2

mustard, wild = test: Test D postemergence; assay type: in vivo, Sinapis arvensis; settings: scale 0 to 100
Procedure, shortened: as §1

lambsquarters [2] = test: Test D postemergence; assay type: in vivo, Chenopodium album; settings: scale 0 to 100
Procedure, shortened: as §1

lambsquarters [3] = test: Test D preemergence; assay type: in vivo, Chenopodium album; settings: scale 0 to 100
Procedure, shortened: as §1

ryegrass, Italian = test: Test D postemergence; assay type: in vivo, Lolium multiflorum; settings: scale 0 to 100
Procedure, shortened: as §1

[4] = Preemergence, 31 g ai/ha, scale 0 to 100
[5] = Preemergence, 62 g ai/ha, scale 0 to 100
[6] = Preemergence, 125 g ai/ha, scale 0 to 100
[7] = preemergence, 8 g ai/ha, scale 0 to 100, 100 is complete control
[8] = preemergence, 16 g ai/ha, scale 0 to 100, 100 is complete control

CCCc1cc(C(=O)NCC(F)(F)F)nn1Cc1ccnc(C(F)(F)F)c1 [Compound 105]
Chickweed plant response rating (chickweed; Postemergence, 31 g ai/ha): 20 | Chickweed plant response rating (chickweed; Postemergence, 125 g ai/ha): 70 | Chickweed plant response rating (chickweed; Postemergence, 250 g ai/ha): 80 | Chickweed plant response rating (chickweed; postemergence, 62 g ai/ha): 55 | Plant response rating, Giant Foxtail (giant foxtail; [4]): 100 | Plant response rating, Giant Foxtail (giant foxtail; [5]): 100 | Plant response rating, Giant Foxtail (giant foxtail; [6]): 100 | Plant response rating, Giant Foxtail (giant foxtail; [7]): 10 | Plant response rating, Giant Foxtail (giant foxtail; [8]): 65 | Plant response rating, Galium (galium; 31 g ai/ha): 100 | Plant response rating, Galium (galium; 62 g ai/ha): 100 | Plant response rating, Galium (galium; 125 g ai/ha): 100 | Plant response rating, Galium (galium; 250 g ai/ha): 100 | Oat, Wild plant response rating (oat, wild; Postemergence, 31 g ai/ha): 15 | Oat, Wild plant response rating (oat, wild; Postemergence, 125 g ai/ha): 25 | Oat, Wild plant response rating (oat, wild; Postemergence, 250 g ai/ha): 50 | Oat, Wild plant response rating (oat, wild; postemergence, 62 g ai/ha): 20 | Plant response rating, Canarygrass (canarygrass; 31 g ai/ha): 15 | Plant response rating, Canarygrass (canarygrass; 62 g ai/ha): 60 | Plant response rating, Canarygrass (canarygrass; 125 g ai/ha): 100 | Plant response rating, Canarygrass (canarygrass; 250 g ai/ha): 100 | Plant response rating, Wild Poinsettia (wild poinsettia; [4]): 5 | Plant response rating, Wild Poinsettia (wild poinsettia; [5]): 60 | Plant response rating, Wild Poinsettia (wild poinsettia; [6]): 95 | Plant response rating, Wild Poinsettia (wild poinsettia; [7]): 0 | Plant response rating, Wild Poinsettia (wild poinsettia; [8]): 0 | Plant response rating, Large Crabgrass (large crabgrass; [4]): 98 | Plant response rating, Large Crabgrass (large crabgrass; [5]): 100 | Plant response rating, Large Crabgrass (large crabgrass; [6]): 100 | Plant response rating, Large Crabgrass (large crabgrass; [7]): 65 | Plant response rating, Large Crabgrass (large crabgrass; [8]): 70 | Plant response rating, Bromegrass, Downy (bromegrass, downy; 31 g ai/ha): 5 | Plant response rating, Bromegrass, Downy (bromegrass, downy; 62 g ai/ha): 15 | Plant response rating, Bromegrass, Downy (bromegrass, downy; 125 g ai/ha): 55 | Plant response rating, Bromegrass, Downy (bromegrass, downy; 250 g ai/ha): 95 | Plant response rating, Pigweed (pigweed; 31 g ai/ha): 100 | Plant response rating, Pigweed (pigweed; 62 g ai/ha): 100 | Plant response rating, Pigweed (pigweed; 125 g ai/ha): 100 | Plant response rating, Pigweed (pigweed; 250 g ai/ha): 100 | Plant response rating, Lambsquarters (lambsquarters [1]; [4]): 100 | Plant response rating, Lambsquarters (lambsquarters [1]; [5]): 100 | Plant response rating, Lambsquarters (lambsquarters [1]; [6]): 100 | Plant response rating, Lambsquarters (lambsquarters [1]; [7]): 35 | Plant response rating, Lambsquarters (lambsquarters [1]; [8]): 35 | Mustard, Wild plant response rating (mustard, wild; Postemergence, 31 g ai/ha): 70 | Mustard, Wild plant response rating (mustard, wild; Postemergence, 125 g ai/ha): 85 | Mustard, Wild plant response rating (mustard, wild; Postemergence, 250 g ai/ha): 90 | Mustard, Wild plant response rating (mustard, wild; postemergence, 62 g ai/ha): 60 | Lambsquarters plant response rating (lambsquarters [2]; Postemergence, 31 g ai/ha): 40 | Lambsquarters plant response rating (lambsquarters [2]; Postemergence, 125 g ai/ha): 70 | Lambsquarters plant response rating (lambsquarters [2]; Postemergence, 250 g ai/ha): 80 | Lambsquarters plant response rating (lambsquarters [2]; postemergence, 62 g ai/ha): 65 | Plant response rating, Lambsquarters (lambsquarters [3]; 31 g ai/ha): 100 | Plant response rating, Lambsquarters (lambsquarters [3]; 62 g ai/ha): 100 | Plant response rating, Lambsquarters (lambsquarters [3]; 125 g ai/ha): 100 | Plant response rating, Lambsquarters (lambsquarters [3]; 250 g ai/ha): 100 | Ryegrass, Italian plant response rating (ryegrass, Italian; Postemergence, 31 g ai/ha): 5 | Ryegrass, Italian plant response rating (ryegrass, Italian; Postemergence, 125 g ai/ha): 40 | Ryegrass, Italian plant response rating (ryegrass, Italian; Postemergence, 250 g ai/ha): 65 | Ryegrass, Italian plant response rating (ryegrass, Italian; postemergence, 62 g ai/ha): 5

CCOc1cc(C(=O)NC(C)C)nn1Cc1ccnc(C(F)(F)F)c1 [Compound 188]
Chickweed plant response rating (chickweed; Postemergence, 31 g ai/ha): 65 | Chickweed plant response rating (chickweed; Postemergence, 125 g ai/ha): 75 | Chickweed plant response rating (chickweed; Postemergence, 250 g ai/ha): 95 | Chickweed plant response rating (chickweed; postemergence, 62 g ai/ha): 65 | Plant response rating, Giant Foxtail (giant foxtail; [5]): 100 | Plant response rating, Giant Foxtail (giant foxtail; [6]): 100 | Plant response rating, Giant Foxtail (giant foxtail; [7]): 5 | Plant response rating, Galium (galium; 62 g ai/ha): 95 | Plant response rating, Galium (galium; 125 g ai/ha): 100 | Plant response rating, Galium (galium; 250 g ai/ha): 100 | Oat, Wild plant response rating (oat, wild; Postemergence, 31 g ai/ha): 15 | Oat, Wild plant response rating (oat, wild; Postemergence, 125 g ai/ha): 25 | Oat, Wild plant response rating (oat, wild; Postemergence, 250 g ai/ha): 70 | Oat, Wild plant response rating (oat, wild; postemergence, 62 g ai/ha): 15 | Plant response rating, Canarygrass (canarygrass; 31 g ai/ha): 55 | Plant response rating, Canarygrass (canarygrass; 62 g ai/ha): 95 | Plant response rating, Canarygrass (canarygrass; 125 g ai/ha): 100 | Plant response rating, Canarygrass (canarygrass; 250 g ai/ha): 100 | Plant response rating, Wild Poinsettia (wild poinsettia; [5]): 100 | Plant response rating, Wild Poinsettia (wild poinsettia; [6]): 100 | Plant response rating, Wild Poinsettia (wild poinsettia; [7]): 10 | Plant response rating, Large Crabgrass (large crabgrass; [5]): 100 | Plant response rating, Large Crabgrass (large crabgrass; [6]): 100 | Plant response rating, Large Crabgrass (large crabgrass; [7]): 90 | Plant response rating, Large Crabgrass (large crabgrass; preemergence, scale 0 to 100, 100 is complete control): 100 | Plant response rating, Bromegrass, Downy (bromegrass, downy; 31 g ai/ha): 20 | Plant response rating, Bromegrass, Downy (bromegrass, downy; 62 g ai/ha): 75 | Plant response rating, Bromegrass, Downy (bromegrass, downy; 125 g ai/ha): 85 | Plant response rating, Bromegrass, Downy (bromegrass, downy; 250 g ai/ha): 100 | Plant response rating, Pigweed (pigweed; 62 g ai/ha): 100 | Plant response rating, Pigweed (pigweed; 125 g ai/ha): 100 | Plant response rating, Pigweed (pigweed; 250 g ai/ha): 100 | Plant response rating, Lambsquarters (lambsquarters [1]; [5]): 100 | Plant response rating, Lambsquarters (lambsquarters [1]; [6]): 100 | Plant response rating, Lambsquarters (lambsquarters [1]; [7]): 50 | Mustard, Wild plant response rating (mustard, wild; Postemergence, 31 g ai/ha): 50 | Mustard, Wild plant response rating (mustard, wild; Postemergence, 125 g ai/ha): 60 | Mustard, Wild plant response rating (mustard, wild; Postemergence, 250 g ai/ha): 85 | Mustard, Wild plant response rating (mustard, wild; postemergence, 62 g ai/ha): 50 | Lambsquarters plant response rating (lambsquarters [2]; Postemergence, 31 g ai/ha): 70 | Lambsquarters plant response rating (lambsquarters [2]; Postemergence, 125 g ai/ha): 80 | Lambsquarters plant response rating (lambsquarters [2]; Postemergence, 250 g ai/ha): 90 | Lambsquarters plant response rating (lambsquarters [2]; postemergence, 62 g ai/ha): 70 | Plant response rating, Lambsquarters (lambsquarters [3]; 62 g ai/ha): 100 | Plant response rating, Lambsquarters (lambsquarters [3]; 125 g ai/ha): 100 | Plant response rating, Lambsquarters (lambsquarters [3]; 250 g ai/ha): 100 | Ryegrass, Italian plant response rating (ryegrass, Italian; Postemergence, 31 g ai/ha): 20 | Ryegrass, Italian plant response rating (ryegrass, Italian; Postemergence, 125 g ai/ha): 25 | Ryegrass, Italian plant response rating (ryegrass, Italian; Postemergence, 250 g ai/ha): 65 | Ryegrass, Italian plant response rating (ryegrass, Italian; postemergence, 62 g ai/ha): 20
